Measured values as given in US20240140999A1, “STABILIZED PEPTIDE-MEDIATED TARGETED PROTEIN DEGRADATION” (Dana-Farber Cancer Institute, Inc., priority 2017, published 2024).
Entries after “also recorded” stand apart in the source; their conditions may differ.

Experiments:
MCL-1 = target: T1, MCL-1 (Homo sapiens, UniProt Q07820); test: MCL-1 levels by western blot in A375P melanoma cells; format: cell-based; conditions: 10 μM, western blot over time
T1 construct: monitoring of cellular MCL-1 levels by western blot of lysates; endogenous in cells; host or cells: A375P melanoma cells
Excerpt: BIM-C-terminal degron is #IWIAQELRXIGDXFNAYYARR% (SEQ ID NO: 134; #=N-term Ac; %=Lys-degron (see FIG. 3 for the structure of Lys-degron)).
A stapled peptide helix-degron chimeric peptide (FIG. 1) modeled after the pro-apoptotic BIM BH3 domain with an incorporated degron (e.g., Lys-degron, FIG. 2-4) was applied to A375P melanoma cells that express such anti-apoptotic BCL-2 family proteins as MCL-1, which promotes cancer cell survival and chemoresistance.

Cop1 [1] = target: T2, Cop1 (Homo sapiens, UniProt Q8NHY2); test: Cop1-mediated degradation of Myc-tagged MDM2 p60 chimera constructs expressed in 293T cells; format: cell-based; set-up: Cop1-expressing human embryonic kidney 293T cells; endogenous in cells; host or cells: 293T (human embryonic kidney); conditions: native GFDVPD replaced by the sequence; Cop1-expressing 293T cells
Excerpt: The native peptide sequence GFDVPD (SEQ ID NO: 26) within MDM2 is replaced by the sequences indicated (lane 3: SEQ ID NO:27; lane 4: SEQ ID NO:28; lane 5: SEQ ID NO:29; and lane 6: SEQ ID NO:30). […] Lower panel: Cop1 loading control.
(§1) (1) Direct genetic modification: Replacement of natural protein residues in structurally disordered regions with derivatives of the sequence DQIVPEY (SEQ ID NO: 25) can cause the chimera proteins to be degraded by Cop1. For example, replacement of the C-terminal sequence GFDVPD (SEQ ID NO: 26) of the p60 isoform of the protein HDM2 with the Trib1-derived sequence DQIVPD (SEQ ID NO: 30) causes Cop1-mediated degradation of the mutant protein when exogenously expressed in Cop1-expressing human embryonic kidney 293T cells (FIG. 13).

Cop1 [2] = target: T2, Cop1; test: Co-immunoprecipitation of Myc-tagged MDM2 p60 mutant constructs with Cop1 from 293T cells; format: cell-based; set-up: Cop1-expressing human embryonic kidney 293T cells; endogenous in cells; host or cells: 293T (human embryonic kidney)
Excerpt: Sequences: GFDVPD (SEQ ID NO:26); GFDAAD (SEQ ID NO:27); GNDVPD (SEQ ID NO:28); PQTVPD (SEQ ID NO:29); and DQIVPD (SEQ ID NO:30).
as §1

Cop1 [3] = target: T2, Cop1; conditions: reported value (Uljon et al.); read-out: binding affinity for Cop1; cited from earlier work
SJSA-1 cells = test: Cell viability of SJSA-1 cells (Cell Titer Glo); format: cell-based; conditions: thalidomide degron chimeras with distinct linkers, FIG. 12
Method: Certain compositions bearing different linkers show no cellular activity (right). Linker1-5 are as depicted in FIG. 5.
A stapled peptide degron chimera modeled after the transactivation domain helix of p53 (ATSP-7041) coupled to a thalidomide degron was applied to cultured cancer cells (SJSA-1, SJSA-X) and MDM2 protein levels were monitored by western blot and compared to that in cells treated with ATSP-7041 alone. The experiment was repeated and cell viability was measured by Cell Titer Glo assay. […] In addition, each of the stapled peptide degron chimeras impaired cancer cell viability in a dose-responsive fashion (FIG. 12). The composition of the linker influenced the presence (FIG. 12, left) or absence (FIG. 12, right) of biological activity.

T2 sequence (Q8NHY2 whole entry): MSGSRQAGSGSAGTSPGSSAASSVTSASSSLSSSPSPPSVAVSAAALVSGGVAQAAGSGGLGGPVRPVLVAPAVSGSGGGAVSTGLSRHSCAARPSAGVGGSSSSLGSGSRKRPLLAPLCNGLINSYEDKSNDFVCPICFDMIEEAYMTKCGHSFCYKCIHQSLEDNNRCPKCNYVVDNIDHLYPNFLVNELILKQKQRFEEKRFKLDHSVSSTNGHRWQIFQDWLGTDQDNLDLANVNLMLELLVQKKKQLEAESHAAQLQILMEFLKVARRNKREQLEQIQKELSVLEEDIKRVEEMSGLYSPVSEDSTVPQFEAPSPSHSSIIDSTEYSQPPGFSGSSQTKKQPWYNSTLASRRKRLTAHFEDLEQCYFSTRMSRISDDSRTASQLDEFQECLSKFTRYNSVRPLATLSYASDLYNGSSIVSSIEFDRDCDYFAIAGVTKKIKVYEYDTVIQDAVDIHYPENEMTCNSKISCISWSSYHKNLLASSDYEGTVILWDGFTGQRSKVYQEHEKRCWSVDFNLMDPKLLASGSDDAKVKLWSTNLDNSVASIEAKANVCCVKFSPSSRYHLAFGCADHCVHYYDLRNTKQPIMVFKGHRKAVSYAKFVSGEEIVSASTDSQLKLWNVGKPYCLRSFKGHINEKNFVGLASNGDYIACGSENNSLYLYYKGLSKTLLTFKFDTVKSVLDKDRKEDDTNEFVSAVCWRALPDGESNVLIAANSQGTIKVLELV

With “#IWIAQELRXIGDXFNAYYARR% [BIM-C-terminal degron, stapled BIM BH3 peptide; #=N-term Ac; %=Lys-degron (thalidomide on C-terminal lysine side chain)]” the “cellular MCL-1 protein level” value (MCL-1) was “time-dependent decrease in MCL-1 protein; also recorded: induces the degradation of MCL-1”.
With DQIVPD the “Cop1-mediated degradation of the MDM2 p60 chimera protein” value (Cop1 [1]) was “causes destruction of the p60 chimera protein by the Cop1 protein” and the “binding of the Myc-tagged MDM2 p60 mutant construct to Cop1” value (Cop1 [2]) was “direct binding”.
For DQIVPEY, the Kd (Cop1 [3]) is given as 250 ± 40 nM.
In the case of LTF8EYWAQLX%AA [5-L5], the “cell viability / cytotoxic activity” value (SJSA-1 cells) is reported as “most potent cytotoxic activity”.
